{"source": "patent US5620958A", "about": "“Bradykinin antagonists” (Coretech, Inc., priority 1994, dated 1997)", "key": {"[1]": {"test_system": "BK-induced vascular permeability", "assay": "rabbit skin vascular permeability to intradermal BK (Evans Blue)", "format": "in vivo"}, "BK2 receptor [2]": {"target": "T1, BK2 receptor (Oryctolagus cuniculus, UniProt Q28642)", "T1 construct": "when administered to an intact animal; from tissue; host or cells: whole rabbit (systemic arterial blood pressure), LPS-pretreated", "T1 sequence (Q28642 1-367)": "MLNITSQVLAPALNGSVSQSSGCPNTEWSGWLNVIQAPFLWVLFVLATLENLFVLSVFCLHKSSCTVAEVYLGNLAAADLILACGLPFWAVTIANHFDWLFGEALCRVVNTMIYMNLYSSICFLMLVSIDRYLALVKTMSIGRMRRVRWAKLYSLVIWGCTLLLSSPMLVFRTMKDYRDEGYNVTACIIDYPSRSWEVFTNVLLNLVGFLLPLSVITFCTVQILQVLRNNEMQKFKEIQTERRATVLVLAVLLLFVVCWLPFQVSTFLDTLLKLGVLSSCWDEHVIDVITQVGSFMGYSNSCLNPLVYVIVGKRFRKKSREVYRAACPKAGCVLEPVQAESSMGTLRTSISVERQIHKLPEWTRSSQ", "assay": "rabbit jugular vein (RJV) in vitro, antagonism of BK", "format": "cell-based", "conditions": "Table A; recovery after washing"}, "BK-induced hypotension": {"test_system": "BK-induced hypotension", "assay": "BK-induced hypotension in the anesthetized rat", "format": "in vivo", "conditions": "intravenous infusion 9 nmol kg^-1 min^-1; BK 4×10^-9 moles; FIG. 3", "method": "After stopping the infusion of CP-0127, it can be seen that the responses to BK returned slowly being fully recovered after approximately 20 minutes.\nUsing anaesthetized rats, dose-response curves to BK were constructed and the ED50 identified (see FIG. 5a). The ED50 was then injected before and at 15 minute intervals after a single S.C. injection of CP-0127."}, "BK1 receptor": {"target": "T2, BK1 receptor (Oryctolagus cuniculus, UniProt P48748)", "T2 construct": "when administered to an intact animal; from tissue; host or cells: whole rabbit (systemic arterial blood pressure), LPS-pretreated", "T2 sequence (P48748 1-352)": "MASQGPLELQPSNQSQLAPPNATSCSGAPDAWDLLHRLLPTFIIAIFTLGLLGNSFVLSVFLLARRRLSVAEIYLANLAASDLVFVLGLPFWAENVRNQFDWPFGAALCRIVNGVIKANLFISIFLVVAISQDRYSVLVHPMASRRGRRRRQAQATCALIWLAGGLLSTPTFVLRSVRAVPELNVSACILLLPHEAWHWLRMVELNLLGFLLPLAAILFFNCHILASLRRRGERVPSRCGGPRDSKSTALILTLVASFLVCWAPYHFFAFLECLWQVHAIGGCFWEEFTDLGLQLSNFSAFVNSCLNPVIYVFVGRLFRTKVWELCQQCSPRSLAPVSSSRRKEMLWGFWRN", "assay": "rabbit aorta in vitro, reversal of des-Arg^9 -BK contraction", "format": "cell-based", "conditions": "Table G; negative log of molar concentration causing 50% reversal of 10^-7 M des-Arg^9 -BK contraction"}, "BK2 receptor [3]": {"target": "T1, BK2 receptor", "assay": "blood pressure response to BK2 agonist in LPS-pretreated rabbits", "format": "in vivo, rabbit", "set-up": "key to OBSERVED ANTAGONIST ACTIVITY BK2: +: indicates complete blockade of the blood pressure response to the appropriate agonist; +/-: indicates partial blockade; -: indicates no observable effect at the dose indicated", "conditions": "rabbits given LPS (10 μg) 20 hours before"}}, "note": "Peptide text beside a SMILES is read from it."}
{"smiles": "CC(C)C[C@H](NC(=O)[C@@H](Cc1ccccc1)NC(=O)[C@H](CS)NC(=O)[C@H](Cc1ccccc1)NC(=O)CNC(=O)[C@@H]1C[C@@H](O)CN1C(=O)[C@@H]1CCCN1C(=O)[C@H](CCCNC(=N)N)NC(=O)[C@H](N)CCCNC(=N)N)C(=O)N[C@@H](CCCNC(=N)N)C(=O)O", "note": "[CP-0126] (HELM PEPTIDE1{[dR].R.P.[Hyp].G.F.C.[dF].L.R}$$$$V2.0)", "values": [{"measurement": "inhibition of BK-induced skin vascular permeability", "setting": "[1]; co-injected intradermally with BK, FIG. 2A", "result": "more potent than CP-0127"}, {"measurement": "inhibition of BK-induced skin vascular permeability", "setting": "[1]; pre-injected 15 or 30 minutes before BK in the same site, FIGS. 2B, 2C", "result": "significantly less effective"}, {"measurement": "RJV % REC", "setting": "BK2 receptor [2]", "result": 60, "unit": "%"}, {"measurement": "inhibition of hypotensive response to BK", "setting": "BK-induced hypotension", "result": "almost totally ineffective"}, {"measurement": "BK1 RABBIT AORTA IC50", "setting": "BK1 receptor", "result": "Inactive"}, {"measurement": "OBSERVED ANTAGONIST ACTIVITY BK2", "setting": "BK2 receptor [3]; 1 μg kg^-1 min^-1", "result": "+"}, {"measurement": "OBSERVED ANTAGONIST ACTIVITY BK2", "setting": "BK2 receptor [3]; 3 μg kg^-1 min^-1", "result": "+"}, {"measurement": "OBSERVED ANTAGONIST ACTIVITY BK2", "setting": "BK2 receptor [3]; 10 μg kg^-1 min^-1", "result": "+"}]}
